Values after ≈ are worked out from the molar mass of the structure shown. Where two headings read alike, the source gives them in different places.

Data on 14 molecules can be found in EP4541363A1, “USE OF THE (+)-ELATOL COMPOUND FOR TREATING OR PREVENTING A NAEGLERIA FOWLERI INFECTION” (Universidad de la Laguna, priority 2022, dated 2023).

Data set [1] deals with Naegleria fowleri ATCC® 30808™. Nature of the data set: In vitro activity against Naegleria fowleri, alamarBlue colorimetric assay, strain ATCC 30808. It counts as cell-based. Conditions: for IC50 / ATCC® 30808™ IC50: strain ATCC® 30808™, 48 hours at 37°C, mean ± standard deviation; for ATCC® 30808™ SI: selectivity index, CC50 in J774A.1 versus IC50 in strain ATCC® 30808™. The procedure: (§1) Two strains of Naegleria fowleri obtained from the American Type Culture Collection (ATCC® 30808™ and ATCC® 30215™) were used (LG Promochem, Barcelona, Spain). Both strains were grown in 2% (w/v) Bacto Casitone (Thermo Fisher Scientific, Madrid, Spain) supplemented with 10% (v/v) fetal bovine serum, 0.3 µg/ml penicillin G sodium salt and 0.5 mg/ml streptomycin sulphate (Sigma-Aldrich, Madrid, Spain) at 37°C.
(§2) All tested compounds were dissolved in dimethyl sulfoxide (DMSO). The in vitro activity of the selected compounds was assessed by a colorimetric assay based on the alamarBlue® reagent. Amoebas were seeded in 96-well plates at a concentration of 2 × 10^5 cells/ml ([…]). Next, serial dilutions (in the same medium as the amoebas) of the compound were prepared and added ([…]) to the wells containing the Naegleria fowleri cells. Lastly, 10% of the total volume of alamarBlue® was added to the wells and incubated under gentle stirring at 37°C for 48 hours. After that time, the emitted fluorescence was read on an EnSpire® Multimode Plate Reader (PerkinElmer, Spain) using a […] (Rizo-Liendo A. et al. "In Vitro Activity of Statins against Naegleria fowleri."; Pathog, vol. 8, no. 3, p. 122 - 2019; doi: 10.3390/ pathogens8030122).

For data set [2], the system named is murine macrophages J774A.1. Kind of data set: Cytotoxicity assay based on alamarBlue reagent. It counts as cell-based. The conditions noted are these: cytotoxic concentration 50 against murine macrophages J774A.1; 24 hours at 37°C, 5% CO2; mean ± standard deviation. The procedure:
(§3) The cells were cultured in DMEM (Dulbecco's Modified Eagle's Medium) supplemented with 10% fetal bovine serum and 10 µg/ml gentamicin (Sigma-Aldrich, Madrid, Spain). The culture was maintained at 37°C in a 5% CO2 atmosphere. To assess cytotoxicity, an assay based on the alamarBlue® reagent was carried out. Briefly, the murine macrophages (2 × 10^5 cells/ml) were incubated with serial dilutions of the test compound that were performed in the same culture medium. Lastly, alamarBlue® was added to each well and kept at 37°C and 5% CO2 for 24 hours.

Data set [3] concerns Naegleria fowleri ATCC® 30215™. Nature of the data set: In vitro activity against Naegleria fowleri, alamarBlue colorimetric assay, strain ATCC 30215. It counts as cell-based. The conditions noted are these: for ATCC® 30215™ IC50 / IC50: Table 2, strain ATCC® 30215™, 48 hours at 37°C, mean ± standard deviation; for ATCC® 30215™ SI: selectivity index, CC50 in J774A.1 versus IC50 in strain ATCC® 30215™; for IC50: Naegleria fowleri, ATCC30215. On the procedure:
as §1, §2

Data set [4] in a line: Cytotoxicity assay based on alamarBlue reagent. Conditions: mouse, cytotoxic concentration 50 against murine macrophages J774A.1, 24 hours at 37°C, 5% CO2, mean ± standard deviation. It counts as cell-based. On the procedure:
as §3

In the next data set the test system is Naegleria fowleri. Conditions: infected PAM patients; alone or in combination with other medicines; cited from earlier work.
The mark [5] stands for this setting: Naegleria fowleri, ATCC30808, Table 2, read-out: ATCC® 30808™ IC50.

For `C=C1C[C@@H](O)[C@@H](Br)C(C)(C)[C@]12CC[C@](C)(Br)[C@@H](Cl)C2` [(+)-obtusol], in data set [1] (Table 1), the IC50 was greater than 25 µg/mL.
Same read-out and setting: with `C=C1C[C@@H](O)[C@@H](Br)C(C)(C)[C@]12CC[C@](C)(Cl)[C@@H](Br)C2` [(-)-cartilagineol] the figure was greater than 25 µg/mL.
Molecule debromolauriterol gave a CC50 in data set [2] of 15.17 ± 2.80 µg/mL. Also, in data set [3], the “ATCC® 30215™ IC50” value stood at 14.13 ± 2.37 µg/mL and the “ATCC® 30215™ SI” value was found to be 1.07. Also, in data set [1] (Table 2), the “ATCC® 30808™ IC50” value was 5.54 ± 1.19 µg/mL. Besides, in data set [1], the “ATCC® 30808™ SI” value turned out to be 2.74.
With `C=C1C[C@@H](O)[C@@H](Br)C(C)(C)[C@]12CC[C@@](C)(O)[C@@H](Cl)C2` [(-)-dendroidiol], in data set [1] (Table 1), the IC50 was greater than 25 µg/mL.
In data set [4] (j774a.1 macrophages), `C=C1CC(O)C(Br)C(C)(C)C12CCC(C)=C(Cl)C2` (single isomer, unassigned; (+)) [(+)-elatol] yielded a CC50 at 24 h of 20.5 ± 4.33 µg/mL (≈ 61.5 µM). Further, the 50% inhibitory concentration (IC50) is 0.38 ± 0.06 µg/mL (≈ 1.14 µM) in data set [3]; 0.36 ± 0.03 µg/mL (≈ 1.08 µM) in data set [1] (Naegleria fowleri, ATCC30808, Table 1, read-out: IC50); 0.36 ± 0.03 µg/mL (≈ 1.08 µM) in data set [1] (setting [5]). For the same molecule, the “ATCC® 30215™ SI” value in data set [3] came out at 54.03. The “ATCC® 30808™ SI” value in data set [1] is 57.02.
Consider `C=C1C[C@H](O)[C@H](Br)C(C)(C)C12CCC(C)(Cl)C(Br)C2` (single isomer, unassigned; (-)) [(-)-rogiolol], for which the CC50 in data set [2] was 45.56 ± 7.80 µg/mL (≈ 110 µM). Besides, the IC50 in data set [1] (Table 1) worked out at 8.18 ± 0.92 µg/mL (≈ 19.7 µM). The “ATCC® 30808™ IC50” value in data set [1] (Table 2) came to 8.18 ± 0.92 µg/mL. Besides, the “ATCC® 30808™ SI” value in data set [1] stood at 5.57.
Turning to `C=C1C[C@H](O)CC(C)(C)[C@@]12CCC(C)=C(Cl)C2` [(+)-debromoelatol], the IC50 in data set [1] (Table 1) is greater than 25 µg/mL.
Still for that read-out and setting: with `C=C1CC[C@@H](Br)C(C)(C)[C@@]12CC[C@@](C)(Br)[C@H](Cl)C2` [(+)-obtusane] the figure was greater than 25 µg/mL; with “(-)-3,10-dibromo-4-chloro-alpha-chamigrene”, greater than 25 µg/mL.
Turning to `C[C@@H]1[C@H](O)[C@@H](C)/C=C/C=C/C=C/C=C/C=C/C=C/C=C/[C@H](O[C@@H]2O[C@H](C)[C@@H](O)[C@H](N)[C@@H]2O)C[C@@H]2O[C@](O)(C[C@@H](O)C[C@@H](O)[C@H](O)CC[C@@H](O)C[C@@H](O)CC(=O)O[C@H]1C)C[C@H](O)[C@H]2C(=O)O` [Amphotericin B], the “patients recover at least partially after its administration” value with Naegleria fowleri is 8%. This molecule displayed a 50% cytotoxic concentration (CC50) at 24 h in data set [4] (j774a.1 macrophages) greater than 200 µg/mL. In addition, the IC50 turned out to be 0.15 ± 0.02 µg/mL (≈ 0.162 µM) in data set [3] and 0.11 ± 0.03 µg/mL (≈ 0.119 µM) in data set [1] (setting [5]). Further, in data set [3], the “ATCC® 30215™ SI” value is greater than 1333.33. Further, the “ATCC® 30808™ SI” value in data set [1] was greater than 1818.18.
Turning to `C=C1CC(O)C(Br)C(C)(C)C12CC=C(C)CC2` (single isomer, unassigned; (-)) [(-)-10-bromochamigra-3,7(14)-dien-9-ol], in data set [1] (Table 1), the IC50 is greater than 25 µg/mL.
In data set [2], `C=C1C[C@H](O)[C@H](Br)C(C)(C)[C@@]12CCC(C)=C(Cl)C2` [(-)-elatol] came in with a cytotoxic concentration (CC50) of 53.91 ± 4.28 µg/mL (≈ 162 µM). This molecule also displayed an IC50 in data set [1] (Table 1) of 12.27 ± 2.68 µg/mL (≈ 36.8 µM). The “ATCC® 30808™ IC50” value in data set [1] (Table 2) came to 12.27 ± 2.68 µg/mL. Also, in data set [1], the “ATCC® 30808™ SI” value worked out at 4.39.
In turn, `CCCCCCCCCCCCCCCCOP(=O)([O-])OCC[N+](C)(C)C` [Miltefosine] registered a CC50 at 24 h in data set [4] of 52.1 ± 3.61 µg/mL (≈ 128 µM). The half-inhibitory concentration (IC50) was determined as 33.2 ± 2.95 µg/mL (≈ 81.6 µM) in data set [3] and 15.8 ± 1.72 µg/mL (≈ 38.7 µM) in data set [1] (setting [5]). Moreover, the “ATCC® 30215™ SI” value in data set [3] is given as 1.56. The “ATCC® 30808™ SI” value in data set [1] is on record as 3.30.
lauriterol: the CC50 in data set [2] is 23.65 ± 2.30 µg/mL. Also, in data set [3], the “ATCC® 30215™ IC50” value was determined as 3.45 ± 0.63 µg/mL and the “ATCC® 30215™ SI” value stood at 6.85. Besides, in data set [1] (Table 2), the “ATCC® 30808™ IC50” value turned out to be 3.96 ± 0.76 µg/mL. Moreover, the “ATCC® 30808™ SI” value in data set [1] turned out to be 5.97.
